In ChEMBL document CHEMBL5143658, “Synthesis and biological evaluation of imidamide analogs as selective anti-trypanosomal agents” (Bioorg Med Chem, 2022):
Values belong to the compound of their own block, whether it stands above or below them. Calls of active or inactive are those of the source. No cut-off for these calls is given here.

Columns and labels:
[1] = Cytotoxicity against mouse RAW264.7 cells assessed as inhibition of cell growth incubated for 48 hrs by MTT assay; format: toxicity, cell-based
[2] = Selectivity index, ratio of IC50 for cytotoxicity against mouse RAW264.7 cells to IC50 for antitrypanosomal activity against blood stream form of Trypanosoma brucei Lister 427; format: toxicity, cell-based; conditions: read-out: Ratio IC50
[3] = Cytotoxicity against HEK293 cells assessed as inhibition of cell growth incubated for 48 hrs by MTT assay; format: toxicity, cell-based; conditions: human
[4] = Selectivity index, ratio of IC50 for cytotoxicity against HEK293 cells to IC50 for antitrypanosomal activity against blood stream form of Trypanosoma brucei Lister 427; format: toxicity, cell-based; conditions: human, read-out: Ratio IC50
Trypanosoma brucei [5] = assay: Antitrypanosomal activity against blood stream form of Trypanosoma brucei Lister 427 assessed as inhibition of parasite growth incubated for 48 hrs by MTS assay; format: functional, organism-based; conditions: Lister 427, 48 h
Trypanosoma brucei [6] = assay: Inhibition of tubulin polymerization in blood stream form of Trypanosoma brucei Lister 427 assessed as reduction in polymerized tubulin level incubated for 12 hrs by Western blot analysis; conditions: dose 200-1000 nM

Structure (SMILES): CN(c1ccc(NC(=O)c2cccc(C(=N)N)c2)cc1OCc1ccc(C(=N)N)cc1)S(=O)(=O)Cc1ccccc1
IC50 at 48 h [1]: > 500 µM
selectivity ratio [2]: 50000
inhibition (Trypanosoma brucei [6]): Active

Structure (SMILES): N=C(N)Nc1ccc(NC(=O)c2ccc3c(c2)OCO3)cc1OCc1ccc(C(F)(F)F)cc1
IC50 at 48 h [1]: 27.2 µM
selectivity ratio [2]: 0.54
IC50 at 48 h [3]: 344 µM
selectivity ratio [4]: < 6.87
IC50 (Trypanosoma brucei [5]): > 50 µM

Structure (SMILES): CN(c1ccc(NC(=O)c2ccc(C(=N)N)cc2)cc1OCc1ccc(C(F)(F)F)cc1)S(=O)(=O)C(F)(F)F
IC50 at 48 h [1]: > 500 µM
selectivity ratio [2]: 10
IC50 at 48 h [3]: > 500 µM
IC50 (Trypanosoma brucei [5]): > 50 µM

Structure (SMILES): CN(c1ccc(NC(=O)c2cccc(C(=N)N)c2)cc1OCc1ccc(C(F)(F)F)cc1)S(=O)(=O)C(F)(F)F
IC50 at 48 h [1]: > 500 µM
selectivity ratio [2]: 10
IC50 at 48 h [3]: > 500 µM
IC50 (Trypanosoma brucei [5]): > 50 µM

Structure (SMILES): CCCCCCOc1cc(NC(=O)c2ccc(OC)cc2)ccc1NC(=N)N
IC50 at 48 h [1]: 259 µM
selectivity ratio [2]: 5.17
IC50 at 48 h [3]: > 500 µM
IC50 (Trypanosoma brucei [5]): > 50 µM

Structure (SMILES): CCCCCCOc1cc(NC(=O)c2ccc3c(c2)OCO3)ccc1NC(=N)N
IC50 at 48 h [1]: 460 µM
selectivity ratio [2]: 9.2
IC50 at 48 h [3]: 385 µM
selectivity ratio [4]: < 7.7
IC50 (Trypanosoma brucei [5]): > 50 µM

Structure (SMILES): N=C(N)Nc1ccc(NC(=O)c2cc(C(F)(F)F)cc(C(F)(F)F)c2)cc1OCc1ccccc1C(F)(F)F
IC50 at 48 h [1]: 481 µM
selectivity ratio [2]: 10.7
IC50 at 48 h [3]: > 500 µM
selectivity ratio [4]: > 11.1
IC50 (Trypanosoma brucei [5]): 45.1 µM

Structure (SMILES): COc1ccc(OC)c(COc2cc(NC(=O)c3ccc4c(c3)OCO4)ccc2NC(=N)N)c1
IC50 at 48 h [1]: > 500 µM
selectivity ratio [2]: 10
IC50 at 48 h [3]: > 500 µM
IC50 (Trypanosoma brucei [5]): > 50 µM

Structure (SMILES): N=C(N)Nc1ccc(NC(=O)c2cc(C(F)(F)F)cc(C(F)(F)F)c2)cc1OCc1ccc(C(F)(F)F)cc1
IC50 at 48 h [1]: > 500 µM
selectivity ratio [2]: 29.6
IC50 at 48 h [3]: 416 µM
selectivity ratio [4]: 24.6
IC50 (Trypanosoma brucei [5]): 16.9 µM

Structure (SMILES): COc1ccc(OC)c(COc2cc(NC(=O)c3cc(C(F)(F)F)cc(C(F)(F)F)c3)ccc2NC(=N)N)c1
IC50 at 48 h [1]: 123 µM
selectivity ratio [2]: 2.45
IC50 at 48 h [3]: 307 µM
selectivity ratio [4]: < 6.13
IC50 (Trypanosoma brucei [5]): > 50 µM

The next lines start with results.

IC50 (Trypanosoma brucei [5]): 0.59 µM
Structure (SMILES): CCS(=O)(=O)N(C)c1ccc(NC(=O)c2cccc(C(=N)N)c2)cc1OCc1ccc(C(=N)N)cc1
IC50 at 48 h [1]: > 500 µM
selectivity ratio [2]: 847
IC50 at 48 h [3]: 426 µM
selectivity ratio [4]: 722

IC50 (Trypanosoma brucei [5]): 27.6 µM
Structure (SMILES): Cc1ccc(C)c(COc2cc(NC(=O)c3ccc(Cl)c(Cl)c3)ccc2NC(=N)N)c1
IC50 at 48 h [1]: > 500 µM
selectivity ratio [2]: 18.1
IC50 at 48 h [3]: > 500 µM
selectivity ratio [4]: > 18.1

IC50 (Trypanosoma brucei [5]): 18.2 µM
Structure (SMILES): N=C(N)Nc1ccc(NC(=O)c2ccc(C(F)(F)F)cc2C(F)(F)F)cc1OCc1ccc(C(F)(F)F)cc1
IC50 at 48 h [1]: > 500 µM
selectivity ratio [2]: 27.5
IC50 at 48 h [3]: 286 µM
selectivity ratio [4]: 15.7

IC50 (Trypanosoma brucei [5]): > 50 µM
Structure (SMILES): N=C(N)Nc1ccc(NC(=O)c2ccc3c(c2)OCO3)cc1OCc1ccccc1C(F)(F)F
IC50 at 48 h [1]: > 500 µM
selectivity ratio [2]: 10
IC50 at 48 h [3]: 450 µM
selectivity ratio [4]: < 9

IC50 (Trypanosoma brucei [5]): 15.2 µM
Structure (SMILES): N=C(N)Nc1ccc(NC(=O)c2ccc(Cl)c(Cl)c2)cc1OCc1ccccc1C(F)(F)F
IC50 at 48 h [1]: 196 µM
selectivity ratio [2]: 12.8
IC50 at 48 h [3]: > 500 µM
selectivity ratio [4]: > 32.8

IC50 (Trypanosoma brucei [5]): > 50 µM
Structure (SMILES): N=C(N)Nc1ccc(NC(=O)c2ccc(Cl)c(Cl)c2)cc1OCc1ccc(C(F)(F)F)cc1
IC50 at 48 h [1]: > 500 µM
selectivity ratio [2]: 10
IC50 at 48 h [3]: > 500 µM

IC50 (Trypanosoma brucei [5]): 27.4 µM
Structure (SMILES): COc1ccc(C(=O)Nc2ccc(NC(=N)N)c(OCc3cccc(C(F)(F)F)c3)c2)cc1
IC50 at 48 h [1]: 102 µM
selectivity ratio [2]: 3.71
IC50 at 48 h [3]: 263 µM
selectivity ratio [4]: 9.58

IC50 (Trypanosoma brucei [5]): 28.4 µM
Structure (SMILES): CN(c1ccc(NC(=O)c2ccc(C(=N)N)cc2)cc1OCc1ccc(C(F)(F)F)cc1)S(=O)(=O)Cc1ccccc1
IC50 at 48 h [1]: > 500 µM
selectivity ratio [2]: 17.6
IC50 at 48 h [3]: > 500 µM
selectivity ratio [4]: > 17.6

IC50 (Trypanosoma brucei [5]): 13.8 µM
Structure (SMILES): CN(c1ccc(NC(=O)c2cccc(C(=N)N)c2)cc1OCc1ccc(C(F)(F)F)cc1)S(=O)(=O)Cc1ccccc1
IC50 at 48 h [1]: > 500 µM
selectivity ratio [2]: 36.3
IC50 at 48 h [3]: > 500 µM
selectivity ratio [4]: > 36.3

IC50 (Trypanosoma brucei [5]): 0.899 µM
Structure (SMILES): COc1ccc(C(=O)Nc2ccc(NC(=N)N)c(OCc3cc(OC)ccc3OC)c2)cc1
IC50 at 48 h [1]: 190 µM
selectivity ratio [2]: 211
IC50 at 48 h [3]: > 500 µM
selectivity ratio [4]: > 556

IC50 (Trypanosoma brucei [5]): 21 µM
Structure (SMILES): Cc1ccc(C)c(COc2cc(NC(=O)c3cc(C(F)(F)F)cc(C(F)(F)F)c3)ccc2NC(=N)N)c1
IC50 at 48 h [1]: > 500 µM
selectivity ratio [2]: 23.8
IC50 at 48 h [3]: > 500 µM
selectivity ratio [4]: > 23.8

IC50 (Trypanosoma brucei [5]): 0.22 µM
Structure (SMILES): Cc1ccc(C(F)(F)F)c(COc2cc(NC(=O)c3cccc(C(=N)N)c3)ccc2N(C)S(=O)(=O)C(F)(F)F)c1
IC50 at 48 h [1]: 0.86 µM
selectivity ratio [2]: 3.9
IC50 at 48 h [3]: 25 µM
selectivity ratio [4]: 114

IC50 (Trypanosoma brucei [5]): 15.3 µM
Structure (SMILES): CN(c1ccc(NC(=O)c2cccc(C(=N)N)c2)cc1OCc1cccc(C(F)(F)F)c1)S(=O)(=O)Cc1ccccc1
IC50 at 48 h [1]: > 500 µM
selectivity ratio [2]: 32.6
IC50 at 48 h [3]: > 500 µM
selectivity ratio [4]: > 32.6

IC50 (Trypanosoma brucei [5]): 33.7 µM
Structure (SMILES): N=C(N)Nc1ccc(NC(=O)c2ccc3c(c2)OCO3)cc1OCc1cccc(C(F)(F)F)c1
IC50 at 48 h [1]: 101 µM
selectivity ratio [2]: 2.99
IC50 at 48 h [3]: 313 µM
selectivity ratio [4]: 9.3

IC50 (Trypanosoma brucei [5]): 47.9 µM
Structure (SMILES): COc1ccc(C(=O)Nc2ccc(NC(=N)N)c(OCc3cc(C)ccc3C)c2)cc1
IC50 at 48 h [1]: > 500 µM
selectivity ratio [2]: 10.4
IC50 at 48 h [3]: > 500 µM
selectivity ratio [4]: > 10.4
